Results published in PMC4377863, “Salacinol and Related Analogs: New Leads for Type 2 Diabetes Therapeutic Candidates from the Thai Traditional Natural Medicine Salacia chinensis” (Nutrients, 2015).
Marks after values point to notes of the source that are not given here.

Columns and labels:
starch-loaded rats = test: Blood glucose levels in starch-loaded rats; assay type: in vivo, rat; settings: for Blood Glucose 0 h: 0 h after starch; for Blood Glucose 0.5 h: 0.5 h after starch; for Blood Glucose 1.0 h: 1.0 h after starch; for Blood Glucose 2.0 h: 2.0 h after starch; for Blood Glucose 3.0 h: 3.0 h after starch
Experimental: Five-week-old male SD rats were housed for one week in metal cages. After overnight fasting (20 h), the rats were orally administered a 5% (w/v) α-starch solution (1 g/kg) with or without a sample (SCE: 10–300 mg/kg, 1: 0.15–1.48 mg/kg, 3: 0.21–2.06 mg/kg, and 4: 0.07–0.68 mg/kg) using a stomach tube. At 0, 0.5, 1.0, 2.0, and 3.0 h after the administration of α-starch, blood samples were taken from the tail vein and immediately subjected to the measurement of blood glucose using the glucose oxidase method. As a baseline, distilled water was administrated to rats as a “normal group”. Median effective dose (ED50) was determined by plotting the inhibition rate of incremental AUC0–2 h (iAUC0–2 h; the AUC above baseline) versus corresponding inhibitor dosage.

[1] = biological target: human small intestinal maltase; test: Human intestinal α-glucosidase (maltase) inhibition, small intestinal microsome; assay type: biochemical; settings: substrate maltose, pH 6.0, 37 °C, 30 min
Experimental: The experiment was performed according to the method as described in our previous report. A human small intestinal microsome (batch MIC318017, purchased from BIOPREDIC International, Rennes, France) in 0.1 M maleate buffer (pH 6.0) was used to determine the activity of maltase, a small intestinal α-glucosidase. A test sample was dissolved in dimethyl sulfoxide (DMSO) and the resulting solution was diluted with 0.1 M maleate buffer to prepare the test sample solution (concentration of DMSO: 10%). A substrate solution in the maleate buffer (maltose: 74 mM, 50 μL), the test sample solution (25 μL), and the enzyme solution (25 μL) were mixed at 37 °C for 30 min and then immediately heated in boiling water for 2 min to stop the reaction. The glucose concentrations were determined using the glucose-oxidase method. The final concentration of DMSO in the test solution was 2.5% and no influence of DMSO on the inhibitory activity was detected. The intestinal α-glucosidase inhibitors (acarbose, voglibose, and miglitol) were used as reference compounds.

[2] = Stability in artificial gastric juice; assay type: in vitro ADME; settings: artificial gastric juice pH 1.2 with pepsin, 37 °C, SCE 1.0 mg/mL
Experimental: A solution of SCE (1.0 mg/mL) in artificial gastric juice (components: 0.2% (w/v) NaCl and 0.32% (w/v) pepsin from porcine, pH adjusted to 1.2 with HCl) was incubated at 37 °C for 1.0 or 3.0 h. Each reaction mixture was neutralized with 1 M NaOH and then filtered by ultrafiltration using Amicon Ultra (MWCO 3000 Da, Millipore, MA, USA). The sulfonium contents (1–4) of each filtrate were measured by LCMS as previously described.

[3] = In situ intestinal absorption, rat ligated intestinal loop model; assay type: in vivo; settings: rat ligated jejunal loop
Experimental: Five-week-old male SD rats (fasting period, 18 h) were anesthetized with thiobutabarbital (80 mg/kg, i.p.), and then ligated jejunal loops (ca. 20 cm) were prepared. The aqueous SCE solution (300 mg/2 mL/body) was injected and indwelled into the loop for 0.5 or 2.0 h. The indwelling solution was collected using saline and the sulfonium contents (1–4) were measured by LCMS as previously described. Miglitol (1 mg/2 mL/body) and D-glucose (10 mg/2 mL/body) were used as reference compounds. The content of miglitol in corresponding indwelling solution was also measured under the following LCMS conditions: column, Inertsil ODS-3 (5 μm, 2.1 × 150 mm; GL Sciences, Tokyo, Japan); column temperature, 40 °C; mobile phase, 5 mM nonafluorovaleric acid-MeOH (95:5, v/v); flow rate, 0.2 mL/min; ionization, ESI-positive mode; SIM, m/z 208; Injection volume, 1 μL; retention time (tR), 7.3 min. Glucose concentration was determined by using the glucose-oxidase method.

With OC[C@@H]1[C@@H](O)[C@H](O)C[S@@+]1C[C@@H](O)[C@@H](O)[C@H](O)[C@H](O)[C@@H](O)CO [compound 4, neokotalanol] the iAUC0-2 h (starch-loaded rats; 0.07 mg/kg p.o.) was 50.5 ± 7.9 mg·h/dL, the “Blood Glucose 0 h” value (starch-loaded rats; 0.07 mg/kg p.o.) was 66.8 ± 2.9 mg/dL and the “Blood Glucose 0.5 h” value (starch-loaded rats; 0.07 mg/kg p.o.) was 104.5 ± 6.1 mg/dL. For the same compound, the “Blood Glucose 1.0 h” value (starch-loaded rats; 0.07 mg/kg p.o.) was 108.4 ± 4.7 mg/dL, the “Blood Glucose 2.0 h” value (starch-loaded rats; 0.07 mg/kg p.o.) was 67.0 ± 4.9 mg/dL and the “Blood Glucose 3.0 h” value (starch-loaded rats; 0.07 mg/kg p.o.) was 56.0 ± 5.4 mg/dL. For the same compound, the iAUC0-2 h (starch-loaded rats; 0.20 mg/kg p.o.) was 41.8 ± 4.2 mg·h/dL, the “Blood Glucose 0 h” value (starch-loaded rats; 0.20 mg/kg p.o.) was 64.1 ± 2.7 mg/dL and the “Blood Glucose 0.5 h” value (starch-loaded rats; 0.20 mg/kg p.o.) was 99.6 ± 6.0 ^b mg/dL. The “Blood Glucose 1.0 h” value (starch-loaded rats; 0.20 mg/kg p.o.) was 102.3 ± 3.5 mg/dL, the “Blood Glucose 2.0 h” value (starch-loaded rats; 0.20 mg/kg p.o.) was 65.0 ± 2.6 mg/dL and the “Blood Glucose 3.0 h” value (starch-loaded rats; 0.20 mg/kg p.o.) was 54.6 ± 4.4 mg/dL. The iAUC0-2 h (starch-loaded rats; 0.68 mg/kg p.o.) was 26.3 ± 8.6 ^a mg·h/dL, the “Blood Glucose 0 h” value (starch-loaded rats; 0.68 mg/kg p.o.) was 64.8 ± 3.9 mg/dL and the “Blood Glucose 0.5 h” value (starch-loaded rats; 0.68 mg/kg p.o.) was 89.9 ± 5.1 ^b mg/dL. The “Blood Glucose 1.0 h” value (starch-loaded rats; 0.68 mg/kg p.o.) was 88.9 ± 6.0 mg/dL, the “Blood Glucose 2.0 h” value (starch-loaded rats; 0.68 mg/kg p.o.) was 63.4 ± 4.8 mg/dL and the “Blood Glucose 3.0 h” value (starch-loaded rats; 0.68 mg/kg p.o.) was 55.6 ± 2.4 mg/dL. For the same compound, the ED50 (starch-loaded rats; Rattus norvegicus, po, starch-loaded SD rats, p.o., read-out: ED50 (inhibition of iAUC0-2 h)) was 0.54 mg/kg, the IC50 [1] was 3.9 µM and the “Relative Content 0 h” value ([2]; 0 h) was 100.0 ± 3.3 % of 0 h. For the same compound, the “Relative Content 1.0 h” value ([2]; 1.0 h) was 97.4 ± 3.0 % of 0 h, the “Relative Content 3.0 h” value ([2]; 3.0 h) was 96.5 ± 4.7 % of 0 h and the “Residual rate, Relative Content 0 h” value ([3]; 0 h) was 100.0 ± 2.1 % of 0 h. The “Residual rate, Relative Content 0.5 h” value ([3]; 0.5 h) was 100.0 ± 2.6 % of 0 h and the “Residual rate, Relative Content 2.0 h” value ([3]; 2.0 h) was 96.6 ± 1.7 % of 0 h.
